# In patent US12528815B2, “5-amino-8-(4-pyridyl)-[1,2,4]triazolo[4,3-c]pyrimidin-3-one compounds for use against cancer” (Nxera Pharma UK Limited, priority 2020, dated 2026):
# Tests used:
# [1] = biological target: T1, human adenosine A1 receptor (Homo sapiens, UniProt P30542); assay: Inhibition binding assay, human adenosine A1 receptor membranes, [3H]DPCPX; conditions: 1 nM [3H]DPCPX, 25° C., 1 h; IC50 converted to Ki with Cheng-Prusoff; read-out: A1 pKi (converted)
# T1 construct: expressed in transfected cells; host or cells: HEK293 cells infected with BacMam (the same paragraph also labels the preparation CHO-hA1)
# T1 sequence (P30542 1-326): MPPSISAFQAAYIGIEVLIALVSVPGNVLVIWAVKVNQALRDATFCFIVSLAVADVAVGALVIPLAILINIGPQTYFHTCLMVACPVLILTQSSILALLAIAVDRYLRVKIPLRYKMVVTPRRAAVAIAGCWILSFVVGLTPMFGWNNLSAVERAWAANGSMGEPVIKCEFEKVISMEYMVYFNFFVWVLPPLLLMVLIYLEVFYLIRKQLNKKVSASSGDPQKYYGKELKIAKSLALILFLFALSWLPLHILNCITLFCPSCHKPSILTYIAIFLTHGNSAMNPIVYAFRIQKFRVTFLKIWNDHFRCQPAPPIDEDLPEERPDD
# Method: (§1) Inhibition binding assays were performed using 0.2 μg of membranes prepared from HEK293 cells infected with BacMam human adenosine A2A receptor or 1.4 μg of membranes prepared from HEK293 cells infected with BacMam human adenosine A1 receptor. Membranes were incubated in 50 mM Tris-HCl (HEK293-hA2A; pH 7.4) or 50 mM Tris-HCl, 100 mM NaCl, 10 mM MgCl2 (CHO-hA1; pH 7.4) in the presence of varying concentrations of test compound and 1 nM [^3H]ZM241385 (HEK293-hA2A) or [^3H]DPCPX (CHO-hA1) at 25° C. for 1 h. The assay was then terminated by rapid filtration onto GF/B grade Unifilter plates using a TomTec cell harvester, followed by 5×0.5 ml washes with ddH2O. Nonspecific binding was defined in the presence of 1 μM CGS15943 (HEK293-hA2A) or 1 μM DPCPX (CHO-hA1). Bound radioactivity was determined by liquid scintillation counting and inhibition curves were analysed using a four-parameter logistic equation. IC50 values were converted to Ki values with the Cheng-Prusoff equation using a KD value derived from saturation binding studies.
# [2] = biological target: T2, human adenosine A2A receptor (Homo sapiens, UniProt P29274); assay: Inhibition binding assay, human adenosine A2A receptor membranes, [3H]ZM241385; conditions: 1 nM [3H]ZM241385, HEK293-hA2A membranes, 25° C., 1 h; IC50 converted to Ki with Cheng-Prusoff; read-out: A2A pKi (converted)
# T2 construct: expressed in transfected cells; host or cells: HEK293 cells infected with BacMam
# Method: as §1
# T2 sequence (P29274 whole entry): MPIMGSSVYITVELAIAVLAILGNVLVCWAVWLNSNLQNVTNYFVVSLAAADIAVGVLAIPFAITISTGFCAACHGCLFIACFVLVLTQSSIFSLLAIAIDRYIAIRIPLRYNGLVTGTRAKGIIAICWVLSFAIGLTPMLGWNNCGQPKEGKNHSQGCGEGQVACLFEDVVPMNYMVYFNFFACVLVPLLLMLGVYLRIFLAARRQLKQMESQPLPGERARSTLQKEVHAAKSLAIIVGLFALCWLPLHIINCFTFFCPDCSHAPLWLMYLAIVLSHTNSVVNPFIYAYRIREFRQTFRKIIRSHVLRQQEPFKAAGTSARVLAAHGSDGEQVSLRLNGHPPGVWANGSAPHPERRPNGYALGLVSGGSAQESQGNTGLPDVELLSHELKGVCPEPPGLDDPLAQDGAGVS
SMILES,Ki [1] [nM],Ki [2] [nM]
"CCC1(C)CC1Cn1nc2c(-c3cc(C)nc(C)c3)c(-c3ccccc3)nc(N)n2c1=O (centres unmarked) [Example 2-27, 5-amino-8-(2,6-dimethyl-4-pyridyl)-2-[(2-ethyl-2-methyl-cyclopropyl)methyl]-7-phenyl-[1,2,4]triazolo[4,3-c]pyrimidin-3-one]",31.6,0.631
"Cc1cc(-c2c(-c3ccccc3)nc(N)n3c(=O)n(Cc4ccccc4CN(C)C)nc23)cc(C)n1 [Example 1-24, 5-amino-2-[[2-[(dimethylamino)methyl]phenyl]methyl]-8-(2,6-dimethyl-4-pyridyl)-7-phenyl-[1,2,4]triazolo[4,3-c]pyrimidin-3-one]",15.8,0.126
"Cc1cc(-c2c(-c3ccc(F)cc3)nc(N)n3c(=O)n(CCN4CCCCC4)nc23)cc(C)n1 [Example 2-104, 5-amino-8-(2,6-dimethyl-4-pyridyl)-7-(4-fluorophenyl)-2-[2-(1-piperidyl)ethyl]-[1,2,4]triazolo[4,3-c]pyrimidin-3-one]",> 3980,79.4
"Nc1nc(-c2ccccc2)c(-c2cc(Cl)nc(CO)c2)c2nn(CCC(F)(F)F)c(=O)n12 [Example 2-45, 5-amino-8-[2-chloro-6-(hydroxymethyl)-4-pyridyl]-7-phenyl-2-(3,3,3-trifluoropropyl)-[1,2,4]triazolo[4,3-c]pyrimidin-3-one]",316,0.251
"Cc1cc(-c2c(-c3ccccc3)nc(N)n3c(=O)n(Cc4ccccc4C4CCNCC4)nc23)cc(C)n1 [Example 1-30, 5-amino-8-(2,6-dimethyl-4-pyridyl)-7-phenyl-2-[[2-(4-piperidyl)phenyl]methyl]-[1,2,4]triazolo[4,3-c]pyrimidin-3-one]",39.8,0.501
"Cc1cc(-c2c(-c3ccccc3)nc(N)n3c(=O)n(CCCN4CCCCC4)nc23)cc(C)n1 [Example 2-111, 5-amino-8-(2,6-dimethyl-4-pyridyl)-7-phenyl-2-[3-(1-piperidyl)propyl]-[1,2,4]triazolo[4,3-c]pyrimidin-3-one]",> 3980,398
"Cc1cc(-c2c(-c3ccccc3)nc(N)n3c(=O)n(Cc4ccc(F)c(O)n4)nc23)cc(CO)n1 [Example 1-48, 5-amino-2-[(5-fluoro-6-hydroxy-2-pyridyl)methyl]-8-[2-(hydroxymethyl)-6-methyl-4-pyridyl]-7-phenyl-[1,2,4]triazolo[4,3-c]pyrimidin-3-one]",> 2510,10
"Cc1cc(-c2c(-c3ccccc3)nc(N)n3c(=O)n(Cc4ncc(F)cc4Cl)nc23)cc(CO)n1 [Example 1-50, 5-amino-2-[(3-chloro-5-fluoro-2-pyridyl)methyl]-8-[2-(hydroxymethyl)-6-methyl-4-pyridyl]-7-phenyl-[1,2,4]triazolo[4,3-c]pyrimidin-3-one]",200,1
"Cc1cc(-c2c(-c3ccccc3)nc(N)n3c(=O)n(Cc4ccncc4)nc23)cc(C)n1 [Example 1-12, 5-amino-8-(2,6-dimethyl-4-pyridyl)-7-phenyl-2-(4-pyridylmethyl)-[1,2,4]triazolo[4,3-c]pyrimidin-3-one]",794,10
"Cc1cc(-c2c(-c3ccccc3)nc(N)n3c(=O)n(Cc4ncc(F)cc4Cl)nc23)cc(C)n1 [Example 1-39, 5-amino-2-[(3-chloro-5-fluoro-2-pyridyl)methyl]-8-(2,6-dimethyl-4-pyridyl)-7-phenyl-[1,2,4]triazolo[4,3-c]pyrimidin-3-one]",63.1,0.631
"Cc1cc(-c2c(-c3ccccc3)nc(N)n3c(=O)n(CCc4ccccc4)nc23)cc(N2CCC2)n1 [Example 1-90, 5-amino-8-[2-(azetidin-1-yl)-6-methyl-4-pyridyl]-7-phenyl-2-(2-phenylethyl)-[1,2,4]triazolo[4,3-c]pyrimidin-3-one]",398,12.6
"Cc1cc(-c2c(-c3ccccc3)nc(N)n3c(=O)n(CCC#N)nc23)cc(C)n1 [Example 2-11, 3-[5-amino-8-(2,6-dimethyl-4-pyridyl)-3-oxo-7-phenyl-[1,2,4]triazolo[4,3-c]pyrimidin-2-yl]propanenitrile]",794,15.8
"Cc1cc(-c2c(-c3ccccc3)nc(N)n3c(=O)n(C(C)c4cc(F)ccc4F)nc23)cc(C)n1 (centres unmarked) [Example 1-15, 5-amino-2-[1-(2,5-difluorophenyl)ethyl]-8-(2,6-dimethyl-4-pyridyl)-7-phenyl-[1,2,4]triazolo[4,3-c]pyrimidin-3-one]",79.4,1.58
"Cc1cc(-c2c(-c3ccccc3)nc(N)n3c(=O)n([C@@H]4CCCc5ccc(F)cc54)nc23)cc(C)n1 [Example 1-14, (R)-5-amino-8-(2,6-dimethyl-4-pyridyl)-2-(7-fluorotetralin-1-yl)-7-phenyl-[1,2,4]triazolo[4,3-c]pyrimidin-3-one]",20,3.16
"Cc1cc(-c2c(-c3ccccc3)nc(N)n3c(=O)n(Cc4cccc(F)c4Cl)nc23)cc(C)n1 [Example 1-21, 5-amino-2-[(2-chloro-3-fluoro-phenyl)methyl]-8-(2,6-dimethyl-4-pyridyl)-7-phenyl-[1,2,4]triazolo[4,3-c]pyrimidin-3-one]",10,0.501
"Cc1cc(-c2c(-c3ccccc3)nc(N)n3c(=O)n(CCN[C@@H](C)c4cccc(C)n4)nc23)cc(C)n1 [Example 1-94, 5-amino-8-(2,6-dimethyl-4-pyridyl)-2-[2-[[(1S)-1-(6-methyl-2-pyridyl)ethyl]amino]ethyl]-7-phenyl-[1,2,4]triazolo[4,3-c]pyrimidin-3-one]",398,10
"Cc1cc(-c2c(-c3ccccc3)nc(N)n3c(=O)n(CCN4CCCCCC4c4cccn4C)nc23)cc(C)n1 (centres unmarked) [Example 1-96, 5-amino-8-(2,6-dimethyl-4-pyridyl)-2-[2-[2-(1-methylpyrrol-2-yl)azepan-1-yl]ethyl]-7-phenyl-[1,2,4]triazolo[4,3-c]pyrimidin-3-one]",251,3.98
"Cc1cc(-c2c(-c3ccccc3)nc(N)n3c(=O)n(CCOS(C)(=O)=O)nc23)cc(C)n1 [Example 2-9, 2-[5-amino-8-(2,6-dimethyl-4-pyridyl)-3-oxo-7-phenyl-[1,2,4]triazolo[4,3-c]pyrimidin-2-yl]ethyl methanesulfonate]",631,20
"Cc1cc(-c2c(-c3ccccc3)nc(N)n3c(=O)n(Cc4ccc(F)c(=O)n4C)nc23)cc(C)n1 [Example 1-10, 5-amino-8-(2,6-dimethyl-4-pyridyl)-2-[(5-fluoro-1-methyl-6-oxo-2-pyridyl)methyl]-7-phenyl-[1,2,4]triazolo[4,3-c]pyrimidin-3-one]",794,20
"Cc1cc(-c2c(-c3ccccc3)nc(N)n3c(=O)n(Cc4cccnn4)nc23)cc(C)[n+]1[O-] [Example 1-43, 5-amino-8-(2,6-dimethyl-1-oxido-pyridin-1-ium-4-yl)-7-phenyl-2-(pyridazin-3-ylmethyl)-[1,2,4]triazolo[4,3-c]pyrimidin-3-one]",316,31.6
"Cc1cc(-c2c(-c3ccc(F)cc3)nc(N)n3c(=O)n(Cc4ccc(Cl)cn4)nc23)cc(CO)n1 [Example 1-62, 5-amino-2-[(5-chloro-2-pyridyl)methyl]-7-(4-fluorophenyl)-8-[2-(hydroxymethyl)-6-methyl-4-pyridyl]-[1,2,4]triazolo[4,3-c]pyrimidin-3-one]",1000,3.98
"Cc1cc(-c2c(-c3ccc(F)cc3)nc(N)n3c(=O)n(CCN4CCCCC4)nc23)cc(Cl)n1 [Example 2-105, 5-amino-8-(2-chloro-6-methyl-4-pyridyl)-7-(4-fluorophenyl)-2-[2-(1-piperidyl)ethyl]-[1,2,4]triazolo[4,3-c]pyrimidin-3-one]",> 2510,31.6
"Cc1cc(-c2c(-c3ccccc3)nc(N)n3c(=O)n(Cc4ccc(Br)cn4)nc23)cc(CO)n1 [Example 1-53, 5-amino-2-[(5-bromo-2-pyridyl)methyl]-8-[2-(hydroxymethyl)-6-methyl-4-pyridyl]-7-phenyl-[1,2,4]triazolo[4,3-c]pyrimidin-3-one]",501,2.51
"Cc1cc(-c2c(-c3ccccc3)nc(N)n3c(=O)n(C[C@H]4CNCCN4C)nc23)cc(C)n1 [Example 2-86, 5-amino-8-(2,6-dimethyl-4-pyridyl)-2-[[(2R)-1-methylpiperazin-2-yl]methyl]-7-phenyl-[1,2,4]triazolo[4,3-c]pyrimidin-3-one]",–,25.1
